Measurements: publication PMC13198932, “Pyrazolone-based ERO1 inhibitors in ERO1-driven triple-negative breast cancer and SEPN1-related myopathy: Structure–activity relationship and therapeutic potential” (Pharmacological research, 2025)
“Also recorded” adds a separate entry of the source. Read-outs that look alike come from different tables or passages of the source.

What was measured:
[1] = target: T1, Human monoamine oxidase A (Mao-A) (Homo sapiens, UniProt P21397); assay: Mao-A activity assay (commercial kit, p-tyramine, H2O2 fluorimetry); type: biochemical; conditions: 25 μM, 10 min incubation
T1 construct: purchased Sigma-Aldrich
T1 sequence (P21397 1-527): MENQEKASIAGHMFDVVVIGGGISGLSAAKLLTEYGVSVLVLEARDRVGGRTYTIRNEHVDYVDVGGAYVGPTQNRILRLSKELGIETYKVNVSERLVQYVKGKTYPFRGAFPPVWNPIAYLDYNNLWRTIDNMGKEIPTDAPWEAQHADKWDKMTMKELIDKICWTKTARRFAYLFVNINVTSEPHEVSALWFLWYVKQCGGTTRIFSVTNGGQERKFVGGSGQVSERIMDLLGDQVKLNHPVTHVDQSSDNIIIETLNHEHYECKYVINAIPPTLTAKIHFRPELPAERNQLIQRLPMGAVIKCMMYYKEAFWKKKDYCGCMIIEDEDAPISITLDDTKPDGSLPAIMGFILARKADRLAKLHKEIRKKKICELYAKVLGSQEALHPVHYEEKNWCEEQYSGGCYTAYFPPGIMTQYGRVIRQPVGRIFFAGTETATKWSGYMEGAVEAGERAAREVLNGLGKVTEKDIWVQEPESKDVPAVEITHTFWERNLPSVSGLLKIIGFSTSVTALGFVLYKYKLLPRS
Procedure: Mao-A activity was measured using a commercial assay kit according to the manufacturer’s instructions. Mao-A (0.837 μM) was incubated with vehicle (1 % DMSO), Clorgyline (50 μM), or various concentrations (1, 5, or 25 μM) of EN460, I2, I26, or I29 for 10 min. Mao-A catalyzes the oxidative deamination of p-tyramine, generating H2O2, which was quantified fluorimetrically (λex= 530; λem= 585 nm). Mao-A activity is presented as a percentage of the vehicle control.

recombinant ERO1A [2] = target: T2, recombinant ERO1A (Mus musculus, UniProt Q8R180); parameters: method as in PMID 39962052; conditions: SAR of I1–I23, Fig. 8A; cited from earlier work
T2 construct: GST-SMT3-mouse ERO1A (residues 43–464); GST-SMT3 (GST-SUMO) (N, cleaved yes); made in house; host or cells: E. coli Rosetta DE3 (Novagen)
T2 sequence (Q8R180 43-464): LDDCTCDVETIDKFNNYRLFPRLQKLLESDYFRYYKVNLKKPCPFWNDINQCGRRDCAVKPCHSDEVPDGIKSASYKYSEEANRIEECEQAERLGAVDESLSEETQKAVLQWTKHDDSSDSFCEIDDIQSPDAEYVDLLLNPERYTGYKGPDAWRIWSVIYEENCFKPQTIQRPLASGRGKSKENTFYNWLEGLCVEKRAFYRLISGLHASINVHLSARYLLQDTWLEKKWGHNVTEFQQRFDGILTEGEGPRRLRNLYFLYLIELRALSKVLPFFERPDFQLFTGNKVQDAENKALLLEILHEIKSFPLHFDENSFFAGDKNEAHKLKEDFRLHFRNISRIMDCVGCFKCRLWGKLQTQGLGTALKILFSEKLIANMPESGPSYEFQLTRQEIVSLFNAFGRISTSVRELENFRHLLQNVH

recombinant PDI = recombinant PDI (Homo sapiens, UniProt P07237); assay: PDI activity assay (insulin transhydrogenase / insulin turbidity assay); type: biochemical; conditions: 25 μM, 15 min incubation
Chain of recombinant PDI (P07237 18-508, species assumed): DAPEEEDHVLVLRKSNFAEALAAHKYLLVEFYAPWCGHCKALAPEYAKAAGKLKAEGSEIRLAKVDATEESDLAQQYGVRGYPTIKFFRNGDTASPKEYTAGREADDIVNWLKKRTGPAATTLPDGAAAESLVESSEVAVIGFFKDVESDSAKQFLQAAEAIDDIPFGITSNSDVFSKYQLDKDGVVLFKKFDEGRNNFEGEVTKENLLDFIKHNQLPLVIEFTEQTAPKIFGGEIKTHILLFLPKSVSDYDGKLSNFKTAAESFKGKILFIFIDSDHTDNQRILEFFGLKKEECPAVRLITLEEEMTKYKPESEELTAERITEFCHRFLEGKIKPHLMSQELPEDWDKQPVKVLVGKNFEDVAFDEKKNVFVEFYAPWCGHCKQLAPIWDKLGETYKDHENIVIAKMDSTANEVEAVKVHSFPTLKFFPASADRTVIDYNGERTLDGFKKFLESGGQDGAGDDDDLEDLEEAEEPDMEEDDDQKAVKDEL
Procedure: PDI activity was assessed using an insulin transhydrogenase assay. Bovine insulin (1 mg/mL) in sodium phosphate buffer, pH 7.0, containing 2 mM EDTA, was incubated with 1.4 μM recombinant PDI in the presence of vehicle (1 % DMSO) or various concentrations of isoquercetin (30 or 60 μM), EN460, I2, I26, or I29 (1, 5, or 25 μM) for 15 min. The turbidimetric assay of insulin disulfide reduction by PDI was initiated by adding 1 mM dithiothreitol, and the reaction was monitored at 650 nm for 80 min. PDI activity is presented as a percentage of the vehicle control.

E0771 tumors = system: E0771 tumors; parameters: method as in PMID 35853086, PMID 36063727, PMID 33531624, PMID 39962052; conditions: previous studies; cited from earlier work
MDAMB231 cells = assay: MTS assay of metabolic activity in MDAMB231 cells; type: cell-based, human; conditions: MDAMB231, dose-response, 24 h, 1 % FBS
Procedure: Six thousand cells (MDAMB231 and E0771) per well were seeded in 96-well plates and cultured in medium containing 1 % FBS. Cells were treated with varying concentrations of compounds and, after 24 h, incubated with MTS [3-(4,5-dimethylthiazol-2-yl)-5-(3-carboxymethoxyphenyl)-2-(4 sulfophenyl)2Htetrazolium]and PMS (phenazine methosulfate), following the instructions of the CellTiter 96® Aqueous Non-Radioactive Cell Proliferation Assay (Promega). Measurements were performed using a TECAN Infinite M200 plate reader with […] at 490 nm.

recombinant ERO1A [3] = target: T2, recombinant ERO1A; assay: AUR-based kinetic assay of ERO1A activity (recombinant ERO1A and PDIA1, HRP, Amplex Ultra Red); type: biochemical; conditions: for IC50: Table 1 in Fig. 3
Excerpt: A GST-SMT3-mouse ERO1A (residues 43–464) and His-tagged PDIA1 [30] were expressed in the Rosetta DE3 bacteria (Novagen) and purified as described in [29, 31]. The GST-SMT3 and His tags were cleaved using Ulp protease (Z03691, GenScript) and thrombin protease (T6884, Merck), respectively. Successful tag removal was confirmed by a shift to a lower molecular weight for ERO1A on SDS-PAGE and by the absence of signal in anti-His immunoblotting for PDIA1.
The kinetic assay of ERO1A activity is based on a reaction involving recombinant ERO1A and PDIA1 proteins, horseradish peroxidase (Worthington), and 5 μM Amplex Ultra Red, as detailed in [29]. The effect of ERO1A inhibitors was evaluated by preincubating the compounds with ERO1A and measuring the inhibition of the linear reaction rate, and the corresponding IC50 values were determined using Prism 10 (GraphPad).
EN460 and 16 newly synthesized derivatives (I24–I40) (except for I31, which was not evaluated due to potential toxicity associated with its CN group) were evaluated for their ability to inhibit ERO1-dependent AUR fluorescence using a kinetic assay with recombinant ERO1 and PDIA1, as previously described (Figs. 3A and 3B). Raw kinetic data showing AUR fluorescence over time in reactions containing reduced ERO1, PDIA1 and EN460-derivatives are presented in Fig. Sup.1 A and Sup. 1B. Reaction rates, measured in presence or absence of varying concentrations of each compound, were used to calculate IC50 values, defined as the concentration required to inhibit 50 % of ERO1 enzymatic activity (Figs. 3C, 3D and Fig. Sup1C).

[4] = target: T3, ERO1 in MDA-MB-231 breast cancer cells (Homo sapiens, UniProt Q96HE7); assay: ERO1 redox state by non-reducing immunoblot in MDA-MB-231 cells; type: cell-based; conditions: MDA-MB-231, 1–100 μM, in physiological solution or dissolved in DMSO, Fig. 4B
T3 construct: Non-reducing Immunoblot of endogenous ERO1 in lysates of vehicle-treated MDAMB231; endogenous in cells; host or cells: MDA-MB-231
T3 sequence (Q96HE7 24-468): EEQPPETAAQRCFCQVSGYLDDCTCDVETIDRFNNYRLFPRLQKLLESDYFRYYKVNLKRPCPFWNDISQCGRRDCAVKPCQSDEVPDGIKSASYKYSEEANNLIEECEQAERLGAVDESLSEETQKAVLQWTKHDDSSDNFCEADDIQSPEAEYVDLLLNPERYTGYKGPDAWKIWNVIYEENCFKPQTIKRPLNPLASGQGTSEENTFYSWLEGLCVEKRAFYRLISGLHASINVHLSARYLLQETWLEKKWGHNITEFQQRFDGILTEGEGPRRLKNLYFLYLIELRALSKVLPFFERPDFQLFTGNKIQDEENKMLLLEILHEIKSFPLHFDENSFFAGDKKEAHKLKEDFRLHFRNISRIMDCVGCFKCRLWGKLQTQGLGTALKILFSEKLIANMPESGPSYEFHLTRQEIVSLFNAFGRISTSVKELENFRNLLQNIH
Procedure: MDAMB231 and E0771 cells were maintained in Dulbecco’s Modified Eagle’s Medium supplemented with 1 % fetal bovine serum and seeded at 70 % confluency in six-well plates one day prior to the experiment. Cells were treated with DTT (10 mM) and/or ERO1A inhibitors for 1–5 h. At the time of collection, phosphate-buffered saline containing 10 mM NEM was added, and cells were incubated on ice for 10 min in lysis buffer (50 mM Tris-HCl, pH 7.4; 150 mM NaCl; 1 % Triton X-100; 0.1 % SDS; 1 % sodium deoxycholate; protease inhibitors; and 10 mM NEM). Protein concentrations were determined using the BCA assay, and equal amounts of protein were separated by non-reducing SDS-PAGE followed by immunoblotting with a polyclonal antibody against ERO1A [33].

[5] = compounds dissolved in DMSO, preincubated with ERO1A, NA stands for not active, read-out: IC50
[6] = logarithm of IC50 in μM, compounds dissolved in DMSO, read-out: Log IC50 (confidence intervals) (converted)

Row | ERO1 inhibitory activity (in words) (recombinant ERO1A [3]; compounds dissolved in DMSO) | IC50 (recombinant ERO1A [3]; [5]) [µM] | IC50 (recombinant ERO1A [3]; [6]) [µM] | Compound | ERO1 inhibitory activity (in words) (recombinant ERO1A [2]) | other results
1 |  |  |  | O=C1/C(=C/c2ccc(-c3ccccc3)o2)C(C(F)(F)F)=NN1c1ccc(Cl)cc1Cl [I2] | retained activity | Mao-A activity (percentage of the vehicle control) [1]: inhibited Mao-A activity; IC50 (recombinant ERO1A [2]): 8 µM; PDI activity (percentage of the vehicle control) (recombinant PDI): inhibited PDI activity; VEGFA levels (E0771 tumors): reduced VEGFA levels; metabolic activity (MTS assay) (MDAMB231 cells): significantly reduced metabolic activity
2 | retained activity | 5.6 |  | O=C1/C(=C/c2ccc(-c3ccccc3)o2)C(C(F)(F)F)=NN1c1cccc(S(=O)(=O)O)c1 [I34] |  | IC50 / potency relative to EN460 (recombinant ERO1A [3]; compared with EN460): comparable to EN460; ERO1 inhibitory activity (in words) (recombinant ERO1A [3]; compound in aqueous solution (physiological solution)): completely inactive; metabolic activity (MTS assay) (MDAMB231 cells): inactive; ERO1 reduction / activity in cells [4]: failed to reduce ERO1A; also recorded: completely inactive in cells; ERO1 reduction / activity in cells ([4]; listed as I34(DMSO)): inactive in cells
3 | lowest potency | 17.7 | 17.8 | Cc1ccccc1N1N=C(C(F)(F)F)/C(=C\c2ccc(-c3ccccc3)o2)C1=O [I25] |  | 
4 |  |  |  | O=C(O)c1cc(N2N=C(c3ccccc3)/C(=C\c3ccc(-c4ccccc4)o3)C2=O)ccc1Cl [I10] | abolished the activity | 
5 | loss of activity | 10.5 |  | COc1cccc(-c2ccc(/C=C3/C(=O)N(c4ccc(Cl)c(C(=O)O)c4)N=C3C(F)(F)F)o2)c1 [I39] |  | 
6 |  |  | 8.51 | COc1ccccc1N1N=C(C(F)(F)F)/C(=C\c2ccc(-c3ccccc3)o2)C1=O [I27] |  | 
7 |  | 10.7 | 10.7 | O=C1/C(=C/c2ccc(-c3ccccc3)o2)C(C(F)(F)F)=NN1c1cc(F)ccc1F [I30] |  | 
8 |  |  | 6.46 | Cc1cccc(C)c1N1N=C(C(F)(F)F)/C(=C\c2ccc(-c3ccccc3)o2)C1=O [I26] |  | Mao-A activity (percentage of the vehicle control) [1]: inhibited Mao-A activity; PDI activity (percentage of the vehicle control) (recombinant PDI): inhibited PDI activity
9 |  |  |  | O=C(O)c1cccc(N2N=C(C(F)(F)F)/C(=C\c3ccc(-c4ccccc4)o3)C2=O)c1 [I3] | retained activity | IC50 (recombinant ERO1A [2]): 3.5 µM
10 |  | 19.1 | 19.1 | O=C1/C(=C/c2ccc(-c3ccccc3)o2)C(C(F)(F)F)=NN1c1cccnc1 [I32] |  | 
11 |  |  |  | CC1=NN(c2ccc(Cl)c(C(=O)O)c2)C(=O)/C1=C/c1ccc(-c2ccccc2)o1 [I14] | abolished the activity | 
12 |  |  |  | COC(=O)c1cc(N2N=C(C(F)(F)F)/C(=C\c3ccc(-c4ccccc4)o3)C2=O)ccc1Cl [I6] | Inactive | 
13 |  |  |  | O=C1/C(=C/c2ccc(-c3ccccc3)o2)C(C(F)(F)F)=NN1c1ccc(Cl)cc1 [I1] | inactive | 
14 |  |  | 8.51 | O=C1/C(=C/c2ccc(-c3ccccc3)o2)C(C(F)(F)F)=NN1c1cccc2ccccc12 [I24] |  | 
15 | reduced activity | 12 |  | O=C(O)c1cc(N2N=C(C(F)(F)F)/C(=C\c3ccc(-c4ccccc4)s3)C2=O)ccc1Cl [I40] |  | 
16 |  |  | 4.79 | O=C1/C(=C/c2ccc(-c3ccccc3)o2)C(C(F)(F)F)=NN1c1ccccc1Cl [I28] |  | 
17 | loss of activity |  |  | O=C(O)c1cc(N2N=C(C(F)(F)F)/C(=C\c3ccc(-c4ccc(F)cc4)o3)C2=O)ccc1Cl [I38] |  | 

Row | Compound | ERO1 inhibitory activity (in words) (recombinant ERO1A [3]; compounds dissolved in DMSO) | IC50 (recombinant ERO1A [3]; [5]) [µM] | IC50 (recombinant ERO1A [3]; [6]) [µM] | ERO1 inhibitory activity (in words) (recombinant ERO1A [2]) | other results
18 | O=C(O)c1cc(N2N=C(C(F)(F)F)/C(=C\c3ccc(-c4cccc(F)c4)o3)C2=O)ccc1Cl [I36] | did not significantly affect inhibitory activity compared to EN460; also recorded: maintained the potency |  |  |  | 
19 | O=C(O)c1cc(N2N=C(C(F)(F)F)/C(=C\c3ccc(-c4cccc(C(F)(F)F)c4)o3)C2=O)ccc1Cl [I37] | did not significantly affect inhibitory activity compared to EN460; also recorded: maintained the potency |  | 5.62 |  | 
